Reference: ChEMBL document CHEMBL1201862, “PubChem BioAssay data set” (2004)
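Five concentrations, 48 hours, 96-well plates. Abbreviation: GI50, concentration required for 50% inhibition of growth.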 Activity calls are given as the source filed them. No stated cut-off is given here; in the data, active = GI50 up to about 1.1 µM and inactive = higher.

Experiments:
Assay in all cases: DTP human tumour cell line panel, 48 h
OVCAR-8 = test system: OVCAR-8
HCT-116 = test system: HCT-116
SK-MEL-28 = test system: SK-MEL-28
U-251 = test system: U-251
EKVX = test system: EKVX
MDA-MB-231 = test system: MDA-MB-231
Malme-3M = test system: Malme-3M
SR = test system: SR
A549 = test system: A549
CCRF-CEM = test system: CCRF-CEM
COLO 205 = test system: COLO 205
OVCAR-4 = test system: OVCAR-4
SK-OV-3 = test system: SK-OV-3
M14 = test system: M14
A498 = test system: A498
MDA-MB-435 = test system: MDA-MB-435
ACHN = test system: ACHN
UACC-257 = test system: UACC-257
HOP-92 = test system: HOP-92

Measured: GI50

C=C(CCOC)CCC1CCCCC(=C)C1=O (stereo unspecified)
inactive: OVCAR-8 > 100 µM | HCT-116 > 100 µM | SK-MEL-28 > 100 µM | U-251 > 100 µM | EKVX > 100 µM | MDA-MB-231 > 100 µM | Malme-3M > 100 µM | SR > 100 µM | A549 > 100 µM | CCRF-CEM > 100 µM | COLO 205 > 100 µM | OVCAR-4 > 100 µM | SK-OV-3 > 100 µM | M14 > 100 µM | A498 > 100 µM | MDA-MB-435 > 100 µM | ACHN > 100 µM

CC(CN(C)C)C(C#N)(c1ccccc1)c1ccccc1 (stereo unspecified)
inactive: OVCAR-8 > 100 µM | HCT-116 > 100 µM | UACC-257 > 100 µM | SK-MEL-28 89.1 µM | U-251 > 100 µM | EKVX > 100 µM | MDA-MB-231 > 100 µM | HOP-92 43.4 µM | Malme-3M > 100 µM | A549 > 100 µM | CCRF-CEM 49.1 µM | COLO 205 82.6 µM | OVCAR-4 > 100 µM | SK-OV-3 > 100 µM | M14 > 100 µM | A498 > 100 µM | MDA-MB-435 > 100 µM | ACHN > 100 µM

CCOC(=O)/C=C(/C=C\COC1CCCCO1)c1ccccc1 (stereo unspecified)
inactive: OVCAR-8 23.1 µM | HCT-116 16 µM | UACC-257 56.1 µM | SK-MEL-28 30 µM | U-251 26.1 µM | EKVX 43.3 µM | MDA-MB-231 42.4 µM | Malme-3M 84.7 µM | SR 18.8 µM | A549 38.4 µM | CCRF-CEM 25.6 µM | COLO 205 > 100 µM | OVCAR-4 31.5 µM | SK-OV-3 33.6 µM | M14 38.6 µM | A498 > 100 µM | MDA-MB-435 25.2 µM | ACHN 48 µM

CNC(=O)N(CCC#N)CCCN(C(=O)NC)c1ccccc1
inactive: OVCAR-8 > 100 µM | HCT-116 > 100 µM | UACC-257 > 100 µM | SK-MEL-28 > 100 µM | U-251 > 100 µM | EKVX > 100 µM | MDA-MB-231 > 100 µM | HOP-92 > 100 µM | Malme-3M 51.4 µM | SR > 100 µM | A549 > 100 µM | CCRF-CEM > 100 µM | COLO 205 > 100 µM | OVCAR-4 > 100 µM | SK-OV-3 > 100 µM | M14 > 100 µM | MDA-MB-435 > 100 µM | ACHN > 100 µM

O=C(NC(=S)Nc1ccc2c(c1)Sc1ccccc1O2)c1ccccc1
inactive: OVCAR-8 34.4 µM | HCT-116 41 µM | UACC-257 33.2 µM | SK-MEL-28 22.2 µM | U-251 20.7 µM | EKVX 36.1 µM | MDA-MB-231 21.6 µM | HOP-92 24.2 µM | Malme-3M 23.1 µM | SR 3.67 µM | A549 45.5 µM | CCRF-CEM 23 µM | COLO 205 38.8 µM | OVCAR-4 19.8 µM | SK-OV-3 29 µM | M14 43.2 µM | MDA-MB-435 3.55 µM | ACHN 31.3 µM

CCOC(=O)C1=C(C)N(c2ccc(Cl)cc2)C2(O)C=CC(O)=C3C(=O)c4ccccc4C(=O)C312 (stereo unspecified)
active: Malme-3M 0.483 µM
inactive: OVCAR-8 5.11 µM | HCT-116 3.2 µM | UACC-257 18.2 µM | U-251 3.59 µM | EKVX 4.36 µM | MDA-MB-231 10.9 µM | HOP-92 1.73 µM | A549 4.56 µM | CCRF-CEM 2.34 µM | COLO 205 3.72 µM | OVCAR-4 3.97 µM | SK-OV-3 10.6 µM | M14 2.63 µM | A498 15.2 µM | MDA-MB-435 2.59 µM | ACHN 5 µM

CCOP(=O)(C[S+](C)[O-])O[C@@H]1C[C@H](C)CC[C@H]1C(C)C (stereo partly specified)
inactive: OVCAR-8 4.48 µM | HCT-116 2.75 µM | UACC-257 6.4 µM | SK-MEL-28 > 100 µM | U-251 4.59 µM | EKVX 3.33 µM | MDA-MB-231 3.03 µM | HOP-92 3.97 µM | Malme-3M 11 µM | SR 3.07 µM | A549 4.85 µM | CCRF-CEM 2.43 µM | COLO 205 6.19 µM | OVCAR-4 15 µM | SK-OV-3 6.95 µM | M14 8.3 µM | MDA-MB-435 3.21 µM | ACHN 4.43 µM

NC1c2c(Cl)sc(Cl)c2C(=O)C1O (stereo unspecified)
inactive: OVCAR-8 25.9 µM | HCT-116 29.2 µM | UACC-257 43.4 µM | U-251 21.2 µM | EKVX 21.6 µM | MDA-MB-231 37.8 µM | HOP-92 13.1 µM | Malme-3M 37.9 µM | A549 > 100 µM | CCRF-CEM 19 µM | COLO 205 18.2 µM | OVCAR-4 17.2 µM | SK-OV-3 > 100 µM | M14 32.3 µM | A498 > 100 µM | MDA-MB-435 42.2 µM | ACHN 27.5 µM
